The source of these data is US6821980B1, “Substituted 5-benzyl-2,4-diaminopyrimidines” (Basilea Pharmaceutica AG, priority 1999, dated 2004).

≈ marks a conversion by molar mass, not a printed value. Where two headings read alike, the source gives them in different places.

In assay [1] the target is purified DHFR of strain 157/4696 of Staphylococcus aureus (Staphylococcus aureus, UniProt P13955). The assay is described as follows: biochemical.
Assay [2] deals with Streptococcus pneumoniae 1/1. The assay can be described thus: MIC against Streptococcus pneumoniae 1/1. The format is cell-based.
Assay [3] concerns the target T1, purified DHFR of strain Sp1/1 of Streptococcus pneumoniae (Streptococcus pneumoniae serotype 4, UniProt Q54801).
T1 sequence (Q54801 1-168 I100L): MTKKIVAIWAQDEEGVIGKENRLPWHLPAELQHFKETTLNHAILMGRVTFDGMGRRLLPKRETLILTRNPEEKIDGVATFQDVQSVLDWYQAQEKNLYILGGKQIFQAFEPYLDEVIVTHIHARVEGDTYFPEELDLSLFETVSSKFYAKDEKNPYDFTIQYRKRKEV
It is filed as biochemical. Particulars: IC50 against purified DHFR of strain Sp1/1.

Assay [4] relates to Staphylococcus aureus 101. The assay can be described thus: MIC against Staphylococcus aureus 101. The format is cell-based. The settings on record: Staphylococcus aureus 101, MRSA- and trimethoprim-resistant, clinical isolate; for MIC: Table 2, read-out: MIC Sa101.
Where [5] appears, read: Table 2, Streptococcus pneumoniae 1/1, trimethoprim- and penicillin-resistant, serotype 6, clinical isolate, read-out: MIC Sp1/1.
[6] abbreviates: Streptococcus pneumoniae, 1/1, read-out: MIC Sp1/1.

Chain of purified DHFR of strain 157/4696 of Staphylococcus aureus (P13955 whole entry): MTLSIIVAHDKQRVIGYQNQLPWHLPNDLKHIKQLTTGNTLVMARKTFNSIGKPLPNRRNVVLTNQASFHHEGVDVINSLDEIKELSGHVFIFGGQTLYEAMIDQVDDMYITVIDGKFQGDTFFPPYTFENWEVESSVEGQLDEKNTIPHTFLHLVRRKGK

For `CCOc1cc(Cc2cnc(N)nc2N)cc(OCC)c1-c1ccc(CN2CCC(=O)N2)cc1` [Example 04-w, 1-[4′-(2,4-Diamino-pyrimidin-5-lmethyl)-2′,6′-diethoxy-biphenyl-4-ylmethyl]-pyrazolidin-3-one], the IC50 in assay [1] was determined as 1200 nM; in assay [3] (Table 2), 82 nM. Moreover, the MIC in assay [2] (setting [5]) and in assay [4] was 8 µg/mL (≈ 17.3 µM) throughout.

With `CCOc1cc(Cc2cnc(N)nc2N)cc(OCC)c1-c1cnc(CN2CCOCC2)nc1` [Example 04-x, 5-[3,5-Diethoxy-4-(2-morpholin-4-ylmethyl-pyrimidin-5-yl)-benzyl]-pyrimidine-2,4-diamine], the results for the IC50 in assay [1] and in assay [3] (Table 2) were 7900 nM and 80 nM, respectively. In addition, the MIC in assay [2] (setting [5]) and in assay [4] was 8 µg/mL (≈ 17.2 µM) each time.

Consider `CCOc1cc(Cc2cnc(N)nc2N)cc(OCC)c1-c1ccc(CN2CCCC2)cc1` [Example 04-y, 5-(2,6-Diethoxy-4′-pyrrolidin-1-ylmethyl-biphenyl-4-ylmethyl)-pyrimidine-2,4-diamine], for which the IC50 was 890 nM in assay [1] and 92 nM in assay [3] (Table 2). Besides, the MIC in assay [2] (setting [5]) and in assay [4] was 8 µg/mL (≈ 17.9 µM) in each case.

Regarding `CCOc1cc(Cc2cnc(N)nc2N)cc(OCC)c1-c1ccc(CN2CCOCC2)c(F)c1` [Example 04-z], the IC50 was found to be 3800 nM in assay [1] and 58 nM in assay [3] (Table 2). Moreover, the MIC in assay [2] (setting [5]) turned out to be 4 µg/mL (≈ 8.31 µM); in assay [4], 8 µg/mL (≈ 16.6 µM).

Turning to `CCOc1cc(Cc2cnc(N)nc2N)cc(OCC)c1-c1cccc(OC)c1` [Example 05-a, 5-(2,6-Diethoxy-3′-methoxy-biphenyl-4-ylmethyl)-pyrimidine-2,4-diamine], the IC50 in assay [1] came out at 6100 nM; in assay [3] (Table 2), 46 nM. Further, the results for the MIC in assay [2] (setting [5]) and in assay [4] were 2 µg/mL (≈ 5.07 µM) and 8 µg/mL (≈ 20.3 µM), respectively.

On to `CCOc1cc(Cc2cnc(N)nc2N)cc(OCC)c1-c1ccc(OC)cc1` [Example 05-b, 5-(2,6-Diethoxy-4′-methoxy-biphenyl-4-ylmethyl)-pyrimidine-2,4-diamine], for which the IC50 was 1500 nM in assay [1] and 40 nM in assay [3] (Table 2). Moreover, the MIC in assay [2] (setting [5]) is 4 µg/mL (≈ 10.1 µM); in assay [4] it was 16 µg/mL (≈ 40.6 µM).

Consider `CCOc1cc(Cc2cnc(N)nc2N)cc(OCC)c1-c1cccc(NC(C)=O)c1` [Example 05-c, N-[4′-(2,4-Diamino-pyrimidin-5-ylmethyl)-2′,6′-diethoxy-biphenyl-3-yl]-acetamide], for which the values for the IC50 in assay [1] and in assay [3] (Table 2) were 2600 nM and 30 nM, respectively. The MIC worked out at 4 µg/mL (≈ 9.49 µM) in assay [2] (setting [5]) and 8 µg/mL (≈ 19 µM) in assay [4].

Regarding `CCOc1cc(Cc2cnc(N)nc2N)cc(OCC)c1-c1cccc(O)c1` [Example 05-d, 4′-(2,4-Diamino-pyrimidin-5-ylmethyl)-2′,6′-diethoxy-biphenyl-3-ol], the figures for the IC50 in assay [1] and in assay [3] (Table 2) were 3100 nM and 70 nM, respectively. Also, the MIC turned out to be 2 µg/mL (≈ 5.26 µM) in assay [2] (setting [5]) and 4 µg/mL (≈ 10.5 µM) in assay [4].

For the compound `CCOc1cc(Cc2cnc(N)nc2N)cc(OCC2(CC#N)CC2)c1-c1cccc(N)c1` [Example 07-b, {1-[3′-Amino-4-(2,4-diamino-pyrimidin-5-ylmethyl)-6-ethoxy-biphenyl-2-yloxymethyl]-cydopropyl}-acetonitrile], the IC50 was determined as 950 nM in assay [1] and 36 nM in assay [3] (Table 2). In addition, the MIC stood at 2 µg/mL (≈ 4.5 µM) in assay [2] (setting [5]) and 8 µg/mL (≈ 18 µM) in assay [4].

For the compound `CCOc1cc(Cc2cnc(N)nc2N)cc(OCC2(COC)CC2)c1-c1cccc(N)c1` [Example 07-c, 5-[3′-Amino-6-ethoxg-2-[(1-methoxymethyl-cyclopropyl)-methoxy]-biphenyl-4-yimethyl]-pyrimidine-2,4-diamine], the IC50 in assay [1] stood at 2200 nM; in assay [3] (Table 2) it was 48 nM. Moreover, the figures for the MIC in assay [2] (setting [5]) and in assay [4] were 4 µg/mL (≈ 8.9 µM) and 8 µg/mL (≈ 17.8 µM), respectively.

With `CCOc1cc(Cc2cnc(N)nc2N)cc(OC2CCCC2)c1-c1cccc(N)c1` [Example 07-d, 5-(3′-Amino-6-cycloventloxy-2-ethoxy-biphenyl-4-ylmethyl)-pyrimidine-2,4-diamine], the IC50 in assay [1] was determined as 680 nM; in assay [3] (Table 2) it was 8.2 nM. The MIC is 1 µg/mL (≈ 2.38 µM) in assay [2] (setting [5]) and 4 µg/mL (≈ 9.53 µM) in assay [4].

On to `CCOc1cc(Cc2cnc(N)nc2N)cc(OC2CCC2)c1-c1cccc(N)c1` [Example 07-e, 5-(3′-Amino-6-qdobutoxy-2-ethoxy-biphenyl-4-ylmethyl)-pyrimidine-2,4-diamine], for which the IC50 in assay [1] stood at 640 nM; in assay [3] (Table 2), 28 nM. For the same compound, the MIC in assay [2] (setting [5]) came out at 1 µg/mL (≈ 2.47 µM); in assay [4] it was 4 µg/mL (≈ 9.86 µM).

`CCOc1cc(Cc2cnc(N)nc2N)cc(OCC(C)(C)C=CC#N)c1-c1cccc(N)c1` [Example 07-f, (E)-5-[3′-Amino-4-(2,4-diamino-pyrimidin-5-ylmeth)-6-ethoxy-biphenyl-2-yloxy]-4,4-dimethyl-pent-2-ene-nitrile]: the results for the IC50 in assay [1] and in assay [3] (Table 2) were 750 nM and 55 nM, respectively. Besides, the figures for the MIC in assay [2] (setting [6]) and in assay [4] were 2 µg/mL (≈ 4.36 µM) and 8 µg/mL (≈ 17.4 µM), respectively.

In the case of `CCOc1cc(Cc2cnc(N)nc2N)cc(OCCc2ccccn2)c1-c1cccc(N)c1` [Example 07-g, 5-[3′-Amino-6-ethoxy-2-(2-pyridin-2-yl-ethoxy)-biphenyl-4-ylmethyl]-pyrimidine-2,4-diamine], the IC50 turned out to be 650 nM in assay [1] and 30 nM in assay [3] (Table 2). Also, the MIC in assay [2] (setting [5]) and in assay [4] was 8 µg/mL (≈ 17.5 µM) throughout.

On to `CCOc1cc(Cc2cnc(N)nc2N)cc(OCC(F)(F)F)c1-c1cccc(N)c1` [Example 07-i, 5-[3′-Amino-6-ethoxy-2-(2,2,2-trifluoro-ethoxy)-biphenyl-4-ylmethyl]-pyrimidine-2,4-diamine], for which the IC50 in assay [1] worked out at 900 nM; in assay [3] (Table 2) it was 28 nM. Further, the MIC in assay [2] (setting [5]) and in assay [4] was 4 µg/mL (≈ 9.23 µM) each time.

As to `CCOc1cc(Cc2cnc(N)nc2N)cc(OCCC2CCOCC2)c1-c1cccc(N)c1` [Example 07-j, 5-{3′-Amino-2-ethoxy-6-[2-(tetrahydro-pyran-4-yl)-ethoxy]-biphenyl-4-ylmethyl}-pyrimidine-2,4-diamine], the IC50 in assay [1] is 1300 nM; in assay [3] (Table 2), 29 nM. For the same compound, the MIC in assay [2] (setting [5]) came to 1 µg/mL (≈ 2.16 µM); in assay [4] it was 8 µg/mL (≈ 17.3 µM).

With `CCOc1cc(Cc2cnc(N)nc2N)cc(OCC2CC2)c1-c1cccc(N)c1` [Example 7a, 5-(3′-Amino-6-cyclopropylmethoxy-2-ethoxy-biphenyl-4-ylmethyl)-pirimidine-2,4-diamine], the IC50 in assay [1] (Table 1, IC50 against purified DHFR of strain 157/4696 (highly trimethoprim-resistant; clinical isolate), read-out: DHFR Sa1) turned out to be 510 nM; in assay [3] (Table 1), 2.1 nM. In addition, in assay [2] (Table 1, Streptococcus pneumoniae 1/1, trimethoprim- and penicillin-resistant, serotype 6, clinical isolate), the “MIC Sp1/1” value stood at 1 µg/mL (≈ 2.47 µM). In assay [4] (Table 1), the “MIC Sa101” value amounted to 8 µg/mL (≈ 19.7 µM).

On to `CCOc1cc(Cc2cnc(N)nc2N)cc(OCC(C)(C)COC)c1-c1ccc(O)cc1` [Example 08-a, 4′-(2,4-Diamino-pylimidin-5-ylmethyl)-6′-ethoxy-2′-(3-methoxy-2,2-dimethyl-propoxy)-biphenyl-4-ol], for which the results for the IC50 in assay [1] and in assay [3] (Table 2) were 1700 nM and 18 nM, respectively. For the same compound, the figures for the MIC in assay [2] (setting [5]) and in assay [4] were 2 µg/mL (≈ 4.42 µM) and 8 µg/mL (≈ 17.7 µM), respectively.

Turning to `CCOc1cc(Cc2cnc(N)nc2N)cc(OCC(C)(C)/C=C/C#N)c1-c1ccc(O)cc1` [Example 08-b, (E)-5-[4-(2,4-Diamino-pyrimidin-5-ylmethyl)-6-ethoxy-4′-hydroxy-biphenyl-2-yloxy]-4,4-dimethyl-pent-2-ene-nitrile], the values for the IC50 in assay [1] and in assay [3] (Table 2) were 950 nM and 38 nM, respectively. Besides, the results for the MIC in assay [2] (setting [6]) and in assay [4] were 2 µg/mL (≈ 4.35 µM) and 8 µg/mL (≈ 17.4 µM), respectively.
